# Experimental data published in patent US11414374B2, “Crystalline forms of vilanterol trifenatate and processes for their preparation” (Hovione Scientia Limited, priority 2017, dated 2022).
# How the values were obtained:
# Format in all cases: physicochemical
# [1] = Dynamic vapor sorption (DVS) analysis / hygroscopicity (EP 7.0 classification); conditions: for Change In Mass (%) Desorption / Change In Mass (%) Hysteresis / Change In Mass (%) Sorption: DVS, 25° C.
# Experimental: The hygroscopicity value is directly obtained from the sorption row at 80% RH, cycle 1.
# Hygroscopicity of a sample of each of new form II and comparative form I was determined using the protocol provided below in conditions of 80% RH and 25° C.
# The sample was subjected to DVS measuring using SMS-DVS intrinsic. The kinetic moisture sorption measurement was performed at 25° C. and in a RH % range described in the following: • From 40% RH to 90% RH • Form 90% RH to 0% RH • From 0% RH to 90% RH • From 90% RH to 0% RH
# The sample was analyzed by XRPD after the analysis.
# The hygroscopicity was calculated using the following equation: % Weight Change=[(W2−W1)/W1]*100 W1: weight of sample at the start of the experiment (25° C. and 40% RH) W2: weight of sample at 25° C. and 80% RH in the first absorption cycle
# [2] = Micronization in fluid energy jet mill: particle size distribution and XRPD of product
# From the text: Vilanterol trifenatate form II is fed to a fluid energy jet mill at 10-100 g/h, operated with N2 at a pressure of 1 to 8 bar for the venturi and a pressure of 1 to 8 bar for the ring.
# [3] = Storage stability of exposed powder at 25° C. and 60% RH for seven days, compared by XRPD; conditions: 60% RH and 25° C. for 7 days, exposed powder
# Experimental: Approximately 30 mg of exposed powder of comparative form 1 and new forms II and III, respectively, were stored at 25′C and 60% RH for seven days. Each powder was then analyzed by XRPD and its diffraction pattern was compared with that of untreated sample.
# [4] = Visual solubility in differing solvents (European Pharmacopeia 6.0 section 5.11)
# Experimental: Visual solubility of certain forms (compounds) in differing solvents was assessed according to the procedure described in the European Pharmacopeia 6.0 section 5.11. p. The compound was shaken vigorously for 1 min and placed in a constant temperature device for 15 min at 25.0±0.5° C. If the compound was not completely dissolved, the shaking was repeated for 1 min and the tube placed in a constant temperature device for 15 min. 50 mg of compound was weighed in a stoppered tube, 0.05 mL of the solvent added and the Dissolving Procedure (see above) followed. If the compound was completely dissolved, it is very soluble. If the compound was not completely dissolved, a further 0.45 mL of the solvent was added and the Dissolving Procedure (see above) followed. […] If the compound was still not completely dissolved, still further 1.0 mL of the solvent was added and the Dissolving Procedure (see above) followed. If the compound was completely dissolved, it is soluble. If the compound was still not completely dissolved, another 3.5 mL of the solvent was added and the Dissolving Procedure (see above) followed. […] If the compound was still not completely dissolved, the compound is slightly soluble or very slightly soluble. In this case, and the suspension was heated up to the boiling point (max 80° C.) under stirring to verify the solubility at high temperature. The hot solution was afterwards cooled to room temperature to observe whether the compound precipitates. If the compound at room temperature was completely dissolved, it is soluble at high temperature. [table]
smiles,measurement,setting,value
"OCc1cc([C@@H](O)CNCCCCCCOCCOCc2c(Cl)cccc2Cl)ccc1O [form III, vilanterol trifenatate]","hygroscopicity classification according to the European Pharmacopoeia (EP, version 7.0)",[1]; 80% RH and 25° C.,slightly hygroscopic
same,mass increase by dynamic vapor sorption analysis (hygroscopicity),"[1]; 80% RH and 25° C., first sorption cycle, relative to 40% RH",1.1%
same,Change In Mass (%) Desorption,"[1]; Cycle 1, target RH 0.0%",−0.017%
same,Change In Mass (%) Desorption,"[1]; Cycle 1, target RH 10.0%",0.002%
same,Change In Mass (%) Desorption,"[1]; Cycle 1, target RH 20.0%",0.015%
same,Change In Mass (%) Desorption,"[1]; Cycle 1, target RH 30.0%",0.024%
same,Change In Mass (%) Desorption,"[1]; Cycle 1, target RH 40.0%",0.035%
same,Change In Mass (%) Hysteresis,"[1]; Cycle 1, target RH 40.0%",0.035%
same,Change In Mass (%) Sorption,"[1]; Cycle 1, target RH 40.0%",0.000%
same,Change In Mass (%) Desorption,"[1]; Cycle 1, target RH 50.0%",0.280%
same,Change In Mass (%) Hysteresis,"[1]; Cycle 1, target RH 50.0%",0.271%
same,Change In Mass (%) Sorption,"[1]; Cycle 1, target RH 50.0%",0.008%
same,Change In Mass (%) Desorption,"[1]; Cycle 1, target RH 60.0%",0.421%
same,Change In Mass (%) Hysteresis,"[1]; Cycle 1, target RH 60.0%",0.399%
same,Change In Mass (%) Sorption,"[1]; Cycle 1, target RH 60.0%",0.022%
same,Change In Mass (%) Desorption,"[1]; Cycle 1, target RH 70.0%",0.567%
same,Change In Mass (%) Hysteresis,"[1]; Cycle 1, target RH 70.0%",0.530%
same,Change In Mass (%) Sorption,"[1]; Cycle 1, target RH 70.0%",0.037%
same,Change In Mass (%) Desorption,"[1]; Cycle 1, target RH 80.0%",1.144%
same,Change In Mass (%) Hysteresis,"[1]; Cycle 1, target RH 80.0%",0.061%
same,Change In Mass (%) Sorption,"[1]; Cycle 1, target RH 80.0%",1.083%
same,Change In Mass (%) Desorption,"[1]; Cycle 1, target RH 90.0%",1.857%
same,Change In Mass (%) Sorption,"[1]; Cycle 1, target RH 90.0%",1.857%
same,Change In Mass (%) Sorption,"[1]; Cycle 2, target RH 0.0%",−0.017%
same,Change In Mass (%) Sorption,"[1]; Cycle 2, target RH 10.0%",−0.003%
same,Change In Mass (%) Sorption,"[1]; Cycle 2, target RH 20.0%",0.008%
same,Change In Mass (%) Sorption,"[1]; Cycle 2, target RH 30.0%",0.016%
same,Change In Mass (%) Sorption,"[1]; Cycle 2, target RH 40.0%",0.025%
same,Change In Mass (%) Sorption,"[1]; Cycle 2, target RH 50.0%",0.033%
same,Change In Mass (%) Sorption,"[1]; Cycle 2, target RH 60.0%",0.041%
same,Change In Mass (%) Sorption,"[1]; Cycle 2, target RH 70.0%",0.056%
same,Change In Mass (%) Sorption,"[1]; Cycle 2, target RH 80.0%",1.111%
same,Change In Mass (%) Sorption,"[1]; Cycle 2, target RH 90.0%",1.952%
same,stability / XRPD pattern after DVS analysis,"[1]; XRPD after DVS analysis, compared with untreated sample",no significant modifications
same,XRPD of micronized product versus starting material,[2]; after fluid energy jet milling,identical to the one of the starting material
same,particle size distribution Dv90 after micronization,"[2]; fluid energy jet mill, N2",below 10 μm
same,modifications in XRPD pattern after storage (structural stability),[3],No significant modifications in XRPD pattern
same,visual solubility in tetrahydrofuran (THF),[4]; THF at 25° C.,"sparingly soluble (another 3.5 mL of the solvent was added and the Dissolving Procedure (see above) followed. If the compound was completely dissolved, it is sparingly soluble.)"
same,visual solubility in water,[4]; water at 75° C.,insoluble
